Experiments:
castrated male rats = assay: Male rat sexual (copulatory) behavior after orchidectomy; assay type: in vivo, Sprague Dawley rats
Method: Adult male Sprague Dawley rats (300-400 g) from Charles River Hungary Ltd., Godollo, Hungary, were used. Animals were kept in community cages (4 animals/cage) in a climate-controlled room (23∀2EC), with a 14 hour light, 10 hour dark cycle of artificial lighting, using reversed light/dark cycle. […] These hormones were dissolved in sunflower oil.
After establishment of basal behaviors as discussed below, selected animals were orchidectomized via a single midventral incision and were rehoused.
After repeated testing of animals recovered from orchidectomy as discussed below, rats were divided into four groups and treated intravenously, via a single tail vein injection, with one of the following: group 1: control (27% hydroxypropyl-β-cyclodextrin); group 2: 0.03 mg/kg E2-CDS; group 3: 0.3 mg/kg E2-CDS; and group 4: 3 mg/kg E2-CDS.
Mating was observed during the dark cycle in a plexi observation cage in a room where only a dim red light was on. The male was placed in the observation cage 5 minutes prior to the female.
The following parameters were then measured: • Mount latency (ML): the time from the introduction of the female to the initial mount or intromission; • Intromission latency (IL): the time from introduction of the female to the first intromission; and • Ejaculatory latency (EL): the time from the first intromission to ejaculation.
Sessions were considered negative if IL exceeded 15 minutes.
To establish basal behavior, each male was tested every 5 days until four successive and consistent behavioral patterns were achieved. This pretesting lasted for about four weeks. Approximately half of the animals tested were deemed suitable for orchidectomy.
Twenty-eight days after healing from orchidectomy, the animals were tested again (Day 0) and divided into 4 experimental groups. Only animals displaying ejaculation latencies greater than 15 minutes were included in the study.
Tests of male sexual behavior were conducted 3, 7, 14, 21, 28, 35 and 42 days after drug administration or until the effect disappeared, i.e. until no statistically significant difference was found between groups during two consecutive tests.
Behavioral patterns and related times were recorded manually by skilled observers.
(§1) Behavioral changes were analyzed using the Mann-Whitney U test (Siegel, Nonparametric Statistics for the Behavioral Sciences, New York; McGraw-Hill Book Company, Inc., 1956). The Fisher exact test was used for percentage comparisons (Zar, Biostatistical Analysis, Prentice Hall, Inc., Englewood Cliffs, N.J., 1974). Serum LH data were analyzed for each time and treatment group by analysis of variance (ANOVA) followed by Bonferroni posthoc test.
(§2) The testing described above was repeated using a dose of 0.03 mg/kg administered as a single i.v. injection, and a dose of 0.01 mg/kg with daily i.v. administration for 10 days. E2-CDS stock solution (40%) was diluted in 27% HPβCD solution.
The copulatory behavior of E2-CDS treated groups was compared to that of the HPβCD control group at 1, 3, 7, 14, and 21 days after i.v. drug administration in the 0.03 mg/kg group and at 1, 3, 7, 14 and 21 days after initial i.v. drug administration in the 0.01 mg/kg×10 days group.

[1] = Phase I clinical study: serum estradiol (E2) levels; assay type: in vivo, postmenopausal women; settings: 2.86 mg buccal, repeated dosing, both groups
Excerpt: (§3) A brief evaluation of the results follows:

2OHE1/16OHE1 = assay: Phase I clinical study: urinary estrone and 2OHE1/16OHE1
Method: Even more recently, in a Phase I clinical study of postmenopausal women, two different administration regimens of a 2.86 mg E2-CDS buccal delivery tablet were evaluated for safety and effects on hormone levels. The subjects were 12 healthy postmenopausal volunteers, divided into two groups of six. In Group A, women were dosed once daily for 10 days (10 doses); in Group B, women were dosed once every other day for 13 days (7 doses).
Urine was collected for 24 hours on day 1 in both groups, and overnight (8 hours) on day 10 (Group A) and on day 13 (Group B), respectively, to determine the amounts of voided urinary estrone (E1), 2OHE1, 16OHE, and the ratios of 2OHE1 to 16OHE1.

FSH = assay: Phase I clinical study: FSH suppression; assay type: in vivo, postmenopausal women; settings: for suppression in FSH levels: first 24 hours post-dose, 2.86 mg buccal
Excerpt: as §3

[2] = tested on: SHBG (Sex Hormone-binding Globulin); assay: Phase I clinical study: SHBG; assay type: in vivo, postmenopausal women
Excerpt: as §3

testosterone = assay: Phase I clinical study: serum testosterone; assay type: in vivo, postmenopausal women; settings: for testosterone levels exceeding baseline values: 72 hours after the last dose
Excerpt: as §3

LH = assay: Plasma LH in orchidectomized male rats (radioimmunoassay); assay type: in vivo, Sprague Dawley rats
Method: Four weeks following orchidectomy, groups of rats were treated with one of the following drug doses via tail vein injection: E2-CDS 0.03, 0.3, and 3 mg/kg. Blood samples were collected by orbital sinus puncture under light ether anesthesia. The samples were stored at 4EC for one hour and centrifuged at 1,000 g for 10 minutes. Plasma was separated and stored at −80EC until assayed. Plasma LH concentrations from individual samples were measured by double antibody radioimmunoassay kits obtained from Amersham Pharmacia Biotech, Rome, Italy. […] The limit of detection was 15 pg/mL.
as §1, §2

prolactin = assay: Phase I clinical study: prolactin; assay type: in vivo, postmenopausal women
Excerpt: as §3

[3] = Phase I clinical study: safety and tolerance; assay type: in vivo, postmenopausal women; settings: 2.86 mg buccal, 12 subjects, both regimens
Excerpt: as §3

[4] = 0.01 mg/kg i.v. daily for 10 days
[5] = 0.01 mg/kg i.v. daily for 10 days, by day 14
[6] = 3.0 mg/kg single i.v., days 14, 21 and 28

## CN1C=CCC(C(=O)O[C@H]2CC[C@H]3[C@@H]4CCc5cc(O)ccc5[C@H]4CC[C@]23C)=C1 [E2-CDS, 17β-[(1-methyl-1,4-dihydro-3-pyridinyl)carbonyloxy]estra-1,3,5(10)-trien-3-ol]
Castrated male rats; [4]
  intromission frequency: not increased significantly
  intromission latency: reduced significantly
  mount frequency: increased significantly
  mount latency: reduced significantly
Castrated male rats; [5]
  intromission performance restored (% of animals): 50%
  mounting performance restored (% of animals): 67%
Castrated male rats; 0.03 mg/kg single i.v.
  effect on re-establishment of copulatory behavior: no statistically significant effect
Castrated male rats; 0.03 mg/kg single i.v., repeated testing
  sexual activity: improved sexual activity, but it was not statistically significant
Castrated male rats; 0.3 mg/kg single i.v., by day 7
  mounting performance restored (% of the animals): 100%
Castrated male rats; 0.3 mg/kg single i.v., day 7
  mount frequency: significantly increased
Castrated male rats; 0.3 mg/kg single i.v., day 7 through day 28
  mount latency: sharply reduced
Castrated male rats; 3.0 mg/kg single i.v., by day 14 and day 21
  mounting performance restored (% of the animals): 100%
Castrated male rats; 3.0 mg/kg single i.v., day 7 through day 28
  mount latency: sharply reduced
Castrated male rats; 3.0 mg/kg single i.v., day 14 through day 28
  intromission performance: improved in a statistically significant manner
Castrated male rats; 3.0 mg/kg single i.v., days 7, 14, 21 and 28
  mount frequency: significantly increased
Castrated male rats; [6]
  intromission frequency: statistically significant increase
  intromission latency: decrease
[1]
  accumulation of trough E2 levels: no signs of accumulation
2OHE1/16OHE1; Group A
  increase of the ratio of 2OHE1 to 16OHE1 during treatment: 63.6%
2OHE1/16OHE1; Group B
  increase of the ratio of 2OHE1 to 16OHE1 during treatment: 54.7%
FSH; 72 hours after the last dose
  post-study FSH levels below screening/baseline values: 14-25%
FSH; Group A
  time of maximum FSH suppression: 13.2±5.7 hours post-dose
  suppression in FSH levels: 15%
FSH; Group B
  time of maximum FSH suppression: 11.8±5.8 hours post-dose
  suppression in FSH levels: 16%
[2]; Group A, day 13
  SHBG concentration higher than at baseline on day 1: 22.2%
[2]; Group B, day 16
  SHBG concentration higher than at baseline on day 1: 41.2%
testosterone; Group A
  testosterone levels exceeding baseline values: 14%
testosterone; Group B
  testosterone levels exceeding baseline values: 28%
testosterone; day 1, Group A
  mean testosterone AUC24 lower than baseline AUC24 (=C0*24): 31.1%
  minimum serum testosterone concentration: 1.3 ± 1.9 ng/dL
  time to reach minimum testosterone levels: 6.5 ± 11.7 h
testosterone; day 1, Group B
  mean testosterone AUC24 lower than baseline AUC24 (=C0*24): 23.0%
  minimum serum testosterone concentration: 4.0 ± 3.9 ng/dL
  time to reach minimum testosterone levels: 7.3 ± 11.3 h
LH; 0.01 mg/kg, 10 daily i.v. injections, day 3 to day 14
  plasma LH level: significantly reduced
LH; 0.03 mg/kg single i.v., first study
  plasma LH levels: not reduced
LH; 0.03 mg/kg single injection, repeated examination, day 3 only
  plasma LH level: significantly reduced
LH; 0.3 mg/kg single i.v., days 1, 3 and 7
  plasma LH levels: significantly reduced
LH; 3 mg/kg single i.v., throughout 28 days
  plasma LH levels: suppressed significantly
prolactin; end of the study (day 13), Group A
  increase in prolactin levels compared to baseline: 29.8%
prolactin; end of the study (day 16), Group B
  increase in prolactin levels compared to baseline: 16%
[3]
  adverse events (AEs) in total: seven
  seriousness of adverse events: no serious AE was observed
